Data published in patent publication US20180325930A1, “Use of Oligosaccharide Compounds for Activating Angiogenesis” (Urgo Recherche Innovation et Developpement, priority 2015, published 2018).

Tested on: chick embryo chorioallantoic membranes (CAM)
Experiment: chicken ex ovo chorioallantoic membrane (CAM) angiogenesis model
Format: in vivo
Text: This consists of a vascularised membrane found in bird or reptile eggs. In mammals, this structure forms the placenta. The model for the study will be a chicken ex OVO (without the shell) CAM model.
Fertilised chicken eggs were used.
For the study, VEGF-A was used as the positive control.
Potassium sucrose octasulphate salt (KSOS) is presented in the form of a solution at different concentrations, buffered with PBS.
A PBS buffer solution was used as a negative control.
On receipt, the eggs are stored at 13° C. to stop the development thereof until the time of the study. The eggs are then placed in incubation in a hatcher at 37° C. to enable the development of the embryo.
At 3 days, the eggs are broken unto a weighing cup so as to remove the shell, thereby rendering the embryo and all the structures accessible for future treatment. The ex ovo embryos are then placed back in the hatcher where they will continue the in vitro development thereof.
The embryos will be treated in the vehicle (PBS only), VEGF or different concentration of KSOS.
The treatment area is delimited by a silicone ring 1 cm in diameter and 0.2 in thickness. The treatment volume is 25 μl. The treated embryos are placed back in the hatcher for 48 hours.
After 48 hours of incubation, 10% skimmed milk is injected between the CAM and the yolk to separate the 2 vascularisations and increase the contrast for an optimal photographic shot. A photo is taken of the treatment area with a NIKON AZ 1 OO, NIS-element capture software, with 0.5×4 magnification.
On the basis of these photos, a number of parameters were determined using the image analysis software: • a) the total tube length (sum of the lengths of each vessel in the image), • b) the number of segments (total number of vessels connected to a branch point), • c) the number of branch points (total number of junctions connected to a segment). • b and c are representative of the formation of new characteristic vessels of angiogenesis.

Row | Compound | angiogenesis activation (significance with respect to VEGF-A or 100 mg/mL KSOS) (30 mg/mL, 48 hours) | vascular network visible (30 mg/mL, 48 hours) | angiogenesis activation (significance with respect to VEGF-A or 100 mg/mL KSOS) (50 mg/mL, 48 hours) | vascular network visible (50 mg/mL, 48 hours) | 3 parameters measured (total tube length, number of segments, number of branch points), image analysis vs PBS (100 mg/mL, 48 hours) | angiogenesis activation compared with positive control VEGF-A (100 mg/mL, 48 hours) | vascular network observed on photos (100 mg/mL, 48 hours) | CAM vascularisation at the treatment area (overall, according to the dose) (3-100 mg/mL, 48 hours) | vascular change with respect to the negative control (PBS only), photos (from 30 mg/mL, 48 hours) | concentration from which angiogenesis activation is considered significant (inferred from results at 50 and 100 mg/mL, 70 mg/mL not tested) [mg/mL] | neovascularisation of the CAM (photos of treatment area) (VEGF 0.5 μg (20 μg/mL), 25 μl, 48 hours) | 3 parameters measured (total tube length, number of segments, number of branch points), image analysis vs PBS (VEGF 0.5 μg (20 μg/mL), 48 hours)
1 | O=S(=O)([O-])OCC1OC(OC2(COS(=O)(=O)[O-])OC(COS(=O)(=O)[O-])C(OS(=O)(=O)[O-])C2OS(=O)(=O)[O-])C(OS(=O)(=O)[O-])C(OS(=O)(=O)[O-])C1OS(=O)(=O)[O-].[K+].[K+].[K+].[K+].[K+].[K+].[K+].[K+] (stereo not drawn) [KSOS, potassium sucrose octasulphate salt] | not considered to be significant | poorly developed vascular network | not considered to be significant | poorly developed vascular network | significant increase | angiogenesis activation equivalent to that observed with VEGF-A | well-developed vascular network | increase in CAM vascularisation | slight vascular change | ≥ 70 |  | 
2 | VEGF [reference compound] |  |  |  |  |  |  |  |  |  |  | anarchic neovascularisation | significant increase
